# Experimental data: patent US9682976B2, “Protein kinase C inhibitors and uses thereof” (Rigel Pharmaceuticals, Inc., priority 2012, dated 2017)
# Where a name gives a salt, the structure may show the parent alone.
# System: PKC mediated IL-2 production
# Assay: IL-2 ELISA, human primary T cell, anti CD3+CD28+
# Format: cell-based
# Details: Homo sapiens, T-cell, 24 h, human primary T cells stimulated with αCD3 and αCD28, 24 hours
# Description: Compounds 1-328 were tested in a whole cell functional assay for PKC mediated IL-2 production as follows. Human primary T cell isolation and culture: Human primary T cells were prepared as follows. Whole blood was obtained from a healthy volunteer, mixed 1:1 with PBS, layered on to Ficoll Hypaque (Amersham Pharmacia Biotech, Piscataway, N.J., Catalog #17-1440-03) in 2:1 blood/PBS:ficoll ratio and centrifuged for 30 minutes at 4° C. at 1750 rpm. The cells at the serum: ficoll interface were recovered and washed twice with 5 volumes of PBS. These freshly isolated human peripheral blood mononuclear cells were cultured in Yssel's medium containing 40 U/ml IL2 in a flask pre-coated with […] αCD3 and 5 μg/ml αCD28 (Anti-Human CD3, BD Pharmingen Catalog #555336, Anti-Human CD28, Beckman Coulter Catalog #IM1376). The cells were stimulated for 3-4 days, then transferred to a fresh flask and maintained in RPMI (RPMI-1640 with L-Glutamine; Mediatech, Inc., Herndon Va., cat. #10-040-CM) with 10% FBS and 40 U/ml IL-2. The primary T-cells were then washed twice with PBS to remove the IL-2.
# Primary T cell stimulation and IL2 ELISA: Human primary T cells (100,000 cells per well) were pre-incubated with or without test compound in Yssel's medium for 1 hour at 37° C. Cells were then stimulated by transferring them to round-bottom 96-well plates pre-coated with […] αCD3 and 5 μg/ml αCD28. For counter assay, cells were instead stimulated by adding 8× stock solutions of PMA and ionomycin in Yssels (for final concentrations of 0.5 ng/ml PMA and 0.1 uM ionomycin, both from Calbiochem). Cells were incubated at 37° C. for 24 hours before 100 μL supernatants were harvested for quantification of IL-2 by ELISA using Human IL-2 Duoset ELISA Kit from R and D Systems, Cat. # DY202E.
row,EC50,Compound
1,500 to 1000 nM,"COc1cc(-n2nnnc2C)c(F)c(Nc2ncc(F)c(N[C@@H]3C[C@@H]4CCCN4C(C)(C)C3)n2)c1F [Compound 243, 5-fluoro-N2-(2,6-difluoro-3-methoxy-5-(5-methyl-1H-tetrazol-1-yl)phenyl)-N4-((7R,8aS)-octahydro-5,5-dimethylindolizin-7-yl)pyrimidine-2,4-diamine]"
2,< 100 nM,"COCCOc1ccc(Nc2ncc(F)c(N[C@@H]3C[C@@H]4CCCN4C(C)(C)C3)n2)cc1-n1cnnn1 [Compound 202, N4-((7R,8aS)-5,5-dimethyloctahydroindolizin-7-yl)-5-fluoro-N2-(4-(2-methoxyethoxy)-3-(1H-tetrazol-1-yl)phenyl)pyrimidine-2,4-diamine]"
3,500 to 1000 nM,"Cn1nnn(-c2cc(Nc3ncc(F)c(N[C@@H]4C[C@@H]5CCCN5C(C)(C)C4)n3)c(F)cc2OCC2(CO)COC2)c1=O [Compound 165, 1-(5-((4-(((7R,8aS)-5,5-dimethyloctahydroindolizin-7-yl)amino)-5-fluoropyrimidin-2-yl)amino)-4-fluoro-2-((3-(hydroxymethyl)oxetan-3-yl)methoxy)phenyl)-4-methyl-1,4-dihydro-5H-tetrazol-5-one]"
4,100 to 500 nM,"COc1cc(F)c(Nc2ncc(F)c(N[C@@H]3C[C@@H]4CCCN4C(C)(C)C3)n2)cc1-n1nnn(C)c1=O [Compound 22, 1-(5-(4-((7R,8aS)-5,5-dimethyl-octahydroindolizin-7-ylamino)-5-fluoropyrimidin-2-ylamino)-4-fluoro-2-methoxyphenyl)-4-methyl-1H-tetrazol-5(4H)-one]"
5,< 100 nM,"Cn1nnn(-c2cc(Nc3ncc(F)c(NC4CC5CCCN5C(C)(C)C4)n3)ccc2OC2COC2)c1=O (centres unmarked) [Compound 40, 1-(5-(5-fluoro-4-(octahydro-5,5-dimethylindolizin-7-ylamino)pyrimidin-2-ylamino)-2-(oxetan-3-yloxy)phenyl)-4-methyl-1H-tetrazol-5(4H)-one]"
6,< 100 nM,"CC1(C)C[C@H](Nc2nc(Nc3cc(-n4cnnn4)c(C4CC4)cc3F)ncc2F)C[C@@H]2CCCN21 (racemic) [Compound 53, (±)-N^2-(4-cyclopropyl-2-fluoro-5-(1H-tetrazol-1-yl)phenyl)-5-fluoro-n^4-(octahydro-5,5-dimethylindolizin-7-yl)pyrimidine-2,4-diamine]"
7,< 100 nM,CC1(C)C[C@H](Nc2nc(Nc3ccc(O[C@H]4CCNC[C@@H]4F)c(C(F)(F)F)c3)ncc2F)C[C@@H]2CCCN21 [Compound 121]
8,1000 to 10000 nM,"CC1(C)C[C@H](Nc2nc(Nc3ccc(OCC(O)CO)c(C#N)c3)ncc2F)C[C@@H]2CCCN21 (stereo partly drawn) [Compound 212, 2-(2,3-dihydroxypropoxy)-5-((4-(((7R,8aS)-5,5-dimethyloctahydroindolizin-7-yl)amino)-5-fluoropyrimidin-2-yl)amino)benzonitrile]"
9,100 to 500 nM,"Cn1nnn(-c2cc(Nc3ncc(F)c(N[C@@H]4C[C@@H]5CCCN5C(C)(C)C4)n3)c(F)cc2CCCO)c1=O [Compound 97, 1-(5-(4-((7R,8aS)-octahydro-5,5-dimethylindolizin-7-ylamino)-5-fluoropyrimidin-2-ylamino)-4-fluoro-2-(3-hydroxypropyl)phenyl)-4-methyl-1H-tetrazol-5(4H)-one]"

# Same assay, conditions: human primary T cells stimulated with αCD3 and αCD28, 24 hours
row,EC50,Compound
1,1000 to 10000 nM,"Cn1nnn(-c2cc(Nc3ncc(F)c(N[C@H]4C[C@@H]5CCC(=O)N5C(C)(C)C4)n3)c(F)cc2C2CC2)c1=O [Compound 33, 1-(5-(5-fluoro-4-(hexahydro-5,5-dimethylindolizin-3(5H)-one-7-ylamino)pyrimidin-2-ylamino)-2-cyclopropyl-4-fluorophenyl)-4-methyl-1H-tetrazol-5(4H)-one formate]"
2,1000 to 10000 nM,"CC1(C)CC(Nc2nc(Nc3ccc(O[C@@H]4CCOC4)c(C#N)c3)ncc2F)CC2CCCN21 (single isomer, unassigned) [Compound 58]"
